Laboratory results from ChEMBL document CHEMBL4304790, “Successful Strategies for Mitigation of a Preclinical Signal for Phototoxicity in a DGAT1 Inhibitor” (ACS Med Chem Lett, 2019).
Values after ≈ are worked out from the molar mass of the structure shown. Structures can show the parent of a compound that is named as a salt. Active and inactive are the calls of the source. The rule behind the calls is not given here.

Legend:
[1] = target: T1, Diacylglycerol O-acyltransferase 1 (Mus musculus, UniProt Q9Z2A7); assay: (§1) Inhibition of DGAT1 in mouse C2C12 cells assessed as reduction in intracellular triglyceride production incubated for 2 hrs in presence of BSA-complexed oleate by LC/MS/MS analysis; format: cell-based
T1 sequence (Q9Z2A7 whole entry): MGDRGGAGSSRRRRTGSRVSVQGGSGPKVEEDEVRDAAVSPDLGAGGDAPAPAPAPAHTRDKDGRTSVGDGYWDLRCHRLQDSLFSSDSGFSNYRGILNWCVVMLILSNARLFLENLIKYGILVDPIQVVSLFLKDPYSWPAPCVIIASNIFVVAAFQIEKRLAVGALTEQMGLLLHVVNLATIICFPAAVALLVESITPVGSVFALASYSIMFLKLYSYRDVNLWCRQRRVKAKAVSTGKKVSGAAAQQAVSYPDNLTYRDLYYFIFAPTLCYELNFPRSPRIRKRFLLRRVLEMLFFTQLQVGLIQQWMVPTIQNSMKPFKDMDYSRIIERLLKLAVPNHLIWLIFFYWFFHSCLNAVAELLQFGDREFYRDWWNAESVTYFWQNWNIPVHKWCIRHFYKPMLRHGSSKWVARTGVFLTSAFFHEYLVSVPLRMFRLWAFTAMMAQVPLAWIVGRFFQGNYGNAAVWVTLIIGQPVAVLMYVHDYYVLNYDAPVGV

[2] = Lipophilicity, log D of the compound at pH 7.4; format: physicochemical; conditions: buffer
[3] = Dissociation constant, pKa of compound; format: physicochemical
[4] = Photo irritation factor, ratio of IC50 for cytotoxicity against BALB/c mouse 3T3 cells pretreated for 1 hr prior to 50 mins incubation in dark conditions followed by further incubation in DMEM medium for 20 to 22 hrs to IC50 for cytotoxicity against BALB/c mouse 3T3 cells pretreated for 1 hr prior to irradiation with UVA for 50 mins followed by further in DMEM medium incubation for 20 to 22 hrs …; format: cell-based; conditions: BALB/c 3T3 cells
[5] = target: T2, Diacylglycerol O-acyltransferase 1 (Homo sapiens, UniProt O75907); assay: (§2) Inhibition of recombinant human his-tagged DGAT1 expressed in Sf9 insect cells using oleoyl-CoA and diolein as substrates incubated for 30 mins by LC/MS/MS analysis
T2 sequence (O75907 whole entry): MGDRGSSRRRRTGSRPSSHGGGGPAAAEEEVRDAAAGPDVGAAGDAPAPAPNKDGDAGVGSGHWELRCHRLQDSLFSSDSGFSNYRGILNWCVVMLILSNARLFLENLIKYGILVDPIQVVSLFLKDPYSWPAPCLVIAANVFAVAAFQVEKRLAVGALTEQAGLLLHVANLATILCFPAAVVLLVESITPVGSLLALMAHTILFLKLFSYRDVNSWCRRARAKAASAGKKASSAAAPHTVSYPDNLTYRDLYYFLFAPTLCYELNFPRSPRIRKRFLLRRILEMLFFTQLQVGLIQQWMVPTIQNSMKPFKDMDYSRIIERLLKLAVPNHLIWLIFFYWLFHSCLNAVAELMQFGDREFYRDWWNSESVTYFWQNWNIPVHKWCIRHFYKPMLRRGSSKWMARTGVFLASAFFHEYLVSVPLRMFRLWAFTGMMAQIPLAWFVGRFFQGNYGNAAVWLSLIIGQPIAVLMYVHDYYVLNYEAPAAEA

[6] = Half life in Sprague-Dawley rat at 1 mg/kg, iv measured upto 24 hrs; format: ADME, organism-based; conditions: in vivo
[7] = Volume of distribution in Sprague-Dawley rat at 1 mg/kg, iv measured upto 24 hrs; format: ADME, organism-based; conditions: in vivo
[8] = Clearance in Sprague-Dawley rat at 1 mg/kg, iv measured upto 24 hrs; format: ADME, organism-based; conditions: in vivo
[9] = Solubility of compound at pH 6.8; format: physicochemical; conditions: buffer
[10] = Permeability across apical to basolateral side in human Caco2 cells; format: ADME, cell-based; conditions: Caco-2, read-out: permeability
[11] = Permeability across basolateral to apical side in human Caco2 cells; format: ADME, cell-based; conditions: Caco-2, read-out: permeability
[12] = Efflux ratio of permeability across basolateral to apical side over apical to basolateral side in human Caco2 cells; format: ADME, cell-based; conditions: Caco-2
[13] = Protein binding in rat plasma; format: ADME, cell-free; conditions: read-out: PPB (converted)
[14] = AUC (0 to 24 hrs) in Sprague-Dawley rat at 1 mg/kg, iv measured upto 24 hrs; format: ADME, organism-based; parameters: dose 1 mg/kg, time < 24 hr, route intravenous; conditions: in vivo
[15] = system: Rattus norvegicus; assay: Antihyperlipidemic activity in Sprague-Dawley rat lipid bolus model assessed as reduction in plasma triglyceride excursion at 5 mg/kg, po administered via gavage 4 hrs prior to lipid challenge and measured upto 8 hrs post compound dose by GPO-Trinder method relative to control; format: functional
[16] = AUC (0 to 24 hrs) in Sprague-Dawley rat at 5 mg/kg, po measured upto 24 hrs; format: ADME, organism-based; parameters: dose 5 mg/kg, time < 24 hr, route oral; conditions: in vivo
[17] = Cmax in Sprague-Dawley rat at 5 mg/kg, po measured upto 24 hrs; format: ADME, organism-based; parameters: dose 5 mg/kg, route oral; conditions: in vivo
[18] = Tmax in Sprague-Dawley rat at 5 mg/kg, po measured upto 24 hrs; format: ADME, organism-based; conditions: in vivo
[19] = Oral bioavailability in Sprague-Dawley rat at 5 mg/kg measured upto 24 hrs; format: ADME, organism-based; conditions: in vivo
[20] = Half life in po dosed human plasma administered as single dose; format: ADME, organism-based
[21] = Toxicity in preclinical models assessed as GI tolerability
[22] = Half life in Sprague-Dawley rat at 0.5 mg/kg, iv measured upto 24 hrs; format: ADME, organism-based; conditions: in vivo
[23] = Volume of distribution in Sprague-Dawley rat at 0.5 mg/kg, iv measured upto 24 hrs; format: ADME, organism-based; conditions: in vivo
[24] = Clearance in Sprague-Dawley rat at 0.5 mg/kg, iv measured upto 24 hrs; format: ADME, organism-based; conditions: in vivo
[25] = AUC (0 to 24 hrs) in Sprague-Dawley rat at 0.5 mg/kg, iv measured upto 24 hrs; format: ADME, organism-based; parameters: time < 24 hr, dose 0.5 mg/kg, route intravenous; conditions: in vivo
[26] = Drug uptake in plasma of Sprague-Dawley rat lipid bolus model at 5 mg/kg, po administered via gavage 4 hrs prior to lipid challenge and measured upto 8 hrs post compound dose by LC-MS/MS analysis; format: ADME, organism-based; conditions: in vivo
[27] = AUC (0 to 24 hrs) in Sprague-Dawley rat at 1.5 mg/kg, po measured upto 24 hrs; format: ADME, organism-based; parameters: time < 24 hr, dose 1.5 mg/kg, route oral; conditions: in vivo
[28] = Cmax in Sprague-Dawley rat at 1.5 mg/kg, po measured upto 24 hrs; format: ADME, organism-based; parameters: dose 1.5 mg/kg, route oral; conditions: in vivo
[29] = Tmax in Sprague-Dawley rat at 1.5 mg/kg, po measured upto 24 hrs; format: ADME, organism-based; conditions: in vivo
[30] = Oral bioavailability in Sprague-Dawley rat at 1.5 mg/kg measured upto 24 hrs; format: ADME, organism-based; conditions: in vivo
[31] = species on record: Rattus norvegicus; conditions: Sprague-Dawley, 5 mg/kg
[32] = target: T3, Diacylglycerol O-acyltransferase 1 (Homo sapiens) (UniProt O75907); assay: as §2
T3 sequence (whole entry): T2 sequence (O75907 whole entry)

[33] = target: T4, Diacylglycerol O-acyltransferase 1 (Mus musculus) (UniProt Q9Z2A7); assay: as §1; format: cell-based
T4 sequence (whole entry): T1 sequence (Q9Z2A7 whole entry)

## Cc1nnc(Nc2ccc(-c3ccc([C@H]4CC[C@H](CC(=O)O)CC4)cc3)nc2)o1
[1]
  EC50: 206 nM

## CC(C)c1nnc(Nc2ccc(-c3ccc(N4CCC(CC(=O)O)CC4)cc3)nc2)o1
[2]
  logD: 0.7
[3]
  pKa: 3.8
[1]
  EC50: 2300 nM

## CCc1nc(C)c(C(=O)Nc2ccc(-c3ccc([C@H]4CC[C@H](CC(=O)O)CC4)cc3)nc2)o1
[4]
  selectivity ratio: 1
[1]
  EC50: 8 nM

## COc1ccc2nc(Nc3ccc(-c4ccc([C@H]5CC[C@H](CC(=O)O)CC5)cc4)nc3)oc2c1
[4]
  selectivity ratio: 17

## O=C(O)C[C@H]1CC[C@H](c2ccc(-c3ccc(Nc4ccc(C(F)(F)F)nc4)cn3)cc2)CC1
[4]
  selectivity ratio: 56
[5]
  IC50: 55 nM
[6]
  half-life: 5.1 h
[7]
  Vd: 0.1 L/kg
[8]
  clearance: 1 mL/min/kg
[2]
  logD: 3.6
[9]
  solubility: < 5 µM
[3]
  pKa: 4.1
[10]
  Papp A→B: 8.1 ×10⁻⁶ cm/s
[11]
  Papp B→A: 2.3 ×10⁻⁶ cm/s
[12]
  efflux ratio: 0.28
[13]
  fraction unbound: 0.003
[14]
  AUC(0-t) at 24 h: 46 µM·h
[1]
  EC50: 71 nM
[15]
  inhibition in vivo at 5 mg/kg: 50 to 70%
[16]
  AUC(0-t) at 24 h: 190 µM·h
[17]
  Cmax: 42 µM
[18]
  Tmax: 0.7 h
[19]
  bioavailability: 83%
[20]
  half-life: 125 h
[21]
  Activity: Non-Toxic

## O=C(O)C[C@H]1CC[C@H](c2ccc(-c3ccc(Nc4nnc(C5CCC5)o4)cn3)cc2)CC1
[2]
  logD: 2.8
[1]
  EC50: 12 nM

## O=C(O)CC12CCC(c3ccc(-c4ccc(Nc5nnc(C6CCC6)o5)cc4)cc3)(CC1)CO2
[22]
  half-life: 3.2 h
[23]
  Vd: 0.7 L/kg
[24]
  clearance: 3.5 mL/min/kg
[25]
  AUC(0-t) at 24 h: 5.16 µM·h
[2]
  logD: 2.4
[9]
  solubility: < 5 µM
[10]
  Papp A→B: 5.9 ×10⁻⁶ cm/s
[11]
  Papp B→A: 11.8 ×10⁻⁶ cm/s
[13]
  fraction unbound: < 0.01
[26]
  Drug uptake: Active
[27]
  AUC(0-t) at 24 h: 25.8 µM·h
[28]
  Cmax: 6.1 µM
[29]
  Tmax: 1 h
[30]
  bioavailability: > 100%
[31]
  inhibition: Active
[21]
  Activity: Non-Toxic

## CCc1nnc(Nc2ccc(-c3ccc([C@H]4CC[C@H](CC(=O)O)CC4)cc3)nc2)o1
[1]
  EC50: 27 nM

## O=C(O)CC12CCC(c3ccc(-c4ccc(Nc5nnc(C6CCC6)o5)cn4)cc3)(CC1)CO2
[2]
  logD: 1.5
[3]
  pKa: 3.9

## O=C(O)C[C@H]1CC[C@H](c2ccc(-c3ccc(Nc4nnc(C5CCC5)s4)cn3)cc2)CC1
[1]
  EC50: 8 nM

## CN(C)CCCN1c2ccccc2Sc2ccc(Cl)cc21 [CHLORPROMAZINE HYDROCHLORIDE]
[4]
  selectivity ratio: > 6

## CC(C)(C)c1nnc(Nc2ccc(-c3ccc([C@H]4CC[C@H](CC(=O)O)CC4)cc3)nc2)o1
[32]
  inhibition: Active
[33]
  inhibition: Active

## CCc1nc(C)c(C(=O)Nc2ccc(-c3ccc(C45CCC(CC(=O)O)(CC4)OC5)cc3)cc2)o1
[22]
  half-life: 20 h
[23]
  Vd: 0.3 L/kg
[24]
  clearance: 0.2 mL/min/kg
[25]
  AUC(0-t) at 24 h: 51.4 µM·h
[9]
  solubility: 13 µM (≈ 6.17 µg/mL)
[10]
  Papp A→B: 18.3 ×10⁻⁶ cm/s
[11]
  Papp B→A: 7.7 ×10⁻⁶ cm/s
[13]
  fraction unbound: < 0.01
[26]
  Drug uptake: Active
[27]
  AUC(0-t) at 24 h: 180 µM·h
[28]
  Cmax: 28 µM
[29]
  Tmax: 3 h
[30]
  bioavailability: > 100%
[31]
  inhibition: Active
[21]
  Activity: Non-Toxic
